Several values for one entry are separate records, joined by “and”; a condition that tells them apart may be missing. Equal entries are not always repeated.
Target: Coagulation factor X (Homo sapiens, UniProt P00742)
Assay: D3R245

Coagulation factor X, sequence (P00742 41-179 limits assumed): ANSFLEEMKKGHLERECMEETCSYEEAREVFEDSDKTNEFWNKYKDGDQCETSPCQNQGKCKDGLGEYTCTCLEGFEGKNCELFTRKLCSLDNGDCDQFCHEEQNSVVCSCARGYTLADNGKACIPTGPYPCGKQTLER
Coagulation factor X, sequence (P00742 235-488 limits assumed): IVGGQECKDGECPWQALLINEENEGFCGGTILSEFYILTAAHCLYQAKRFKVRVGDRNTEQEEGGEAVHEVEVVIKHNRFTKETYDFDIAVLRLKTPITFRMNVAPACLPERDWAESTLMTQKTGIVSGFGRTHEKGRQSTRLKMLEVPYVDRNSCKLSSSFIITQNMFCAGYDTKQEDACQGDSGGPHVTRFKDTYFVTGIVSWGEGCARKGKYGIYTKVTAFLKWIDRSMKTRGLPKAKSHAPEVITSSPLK

Row | SMILES | IC50
1 | C[C@@H](C(=O)N1CCOCC1)N1CC[C@H](N(c2ccc(F)cc2)S(=O)(=O)c2ccc3cc(Cl)ccc3c2)C1=O [GTC000034A] | 170 nM
2 | C[C@@H](C(=O)N1CCOCC1)N1CC[C@H](N(c2ccsc2)S(=O)(=O)c2ccc3cc(Cl)ccc3c2)C1=O [GTC000036A] | 152 nM
3 | C[C@@H](C(=O)N1C[C@@H]2C[C@H]1CO2)N1CC[C@H](N(CC(N)=O)S(=O)(=O)c2ccc3cc(Cl)ccc3c2)C1=O [GTC000039A] | 97.3 nM
4 | C[C@@H](C(=O)N1CCOCC1)N1CC[C@H](N(CC#N)S(=O)(=O)c2ccc(-c3ccc(Cl)s3)s2)C1=O [GTC000008A] | 28 nM
5 | C[C@@H](C(=O)N1CCOCC1)N1CC[C@H](N(C)S(=O)(=O)/C=C/c2ccc(Cl)s2)C1=O [GTC000044A] | 405 nM
6 | CC(=O)NCCN([C@H]1CCN([C@@H](C)C(=O)N2CCOCC2)C1=O)S(=O)(=O)c1ccc2cc(Cl)ccc2c1 [GTC000041A] | 56.5 nM
7 | C[C@@H](C(=O)N1CCOCC1)N1CC[C@H](N(CC#N)S(=O)(=O)c2ccc3cc(Cl)ccc3c2)C1=O [GTC000003A] | 22.5 nM
8 | C[C@@H](C(=O)N1CCOCC1)N1CC[C@H](N(CC(=O)O)S(=O)(=O)c2ccc(-c3ccc(Cl)s3)s2)C1=O [GTC000016A] | 24 nM
9 | C[C@@H](C(=O)N1CCOCC1)N1CC[C@H](N(c2cccnc2)S(=O)(=O)c2ccc3cc(Cl)ccc3c2)C1=O [GTC000037A] | 77 nM
10 | COC(=O)CN([C@H]1CCN([C@@H](C)C(=O)N2CCOCC2)C1=O)S(=O)(=O)/C=C/c1ccc(Cl)cc1 [GTC000013A] | 60 nM
11 | C[C@@H](C(=O)N1CCOCC1)N1CC[C@H](N(CC(=O)C(C)(C)C)S(=O)(=O)c2ccc3cc(Cl)ccc3c2)C1=O [GTC000021A] | 17 nM
12 | C[C@@H](C(=O)N1CCOCC1)N1CC[C@H](N(CC(N)=O)S(=O)(=O)c2cc3cc(Cl)ccc3s2)C1=O [GTC000031A] | 218 nM
13 | C=CCN([C@H]1CCN([C@@H](C)C(=O)N2CCOCC2)C1=O)S(=O)(=O)c1ccc2cc(Cl)ccc2c1 [GTC000004A] | 67 nM
14 | C[C@@H](C(=O)N1CCOCC1)N1CC[C@H](N(CC(N)=O)S(=O)(=O)/C=C/c2ccc(Cl)cc2)C1=O [GTC000030A] | 54 nM
15 | C[C@@H]1CN(C(=O)[C@H](C)N2CC[C@H](N(CC(N)=O)S(=O)(=O)c3ccc4cc(Cl)ccc4c3)C2=O)C[C@H](C)O1 [GTC000038A] | 26.5 nM
16 | CCC(=O)CN([C@H]1CCN([C@@H](C)C(=O)N2CCOCC2)C1=O)S(=O)(=O)/C=C/c1ccc(Cl)cc1 [GTC000012A] | 60 nM
17 | COC(=O)CN([C@H]1CCN([C@@H](C)C(=O)N2CCOCC2)C1=O)S(=O)(=O)c1ccc2cc(Cl)ccc2c1 [GTC000001A] | 10.5 nM
18 | C[C@@H](C(=O)N1CCOCC1)N1CC[C@H](N(CCN2CCOCC2)S(=O)(=O)c2ccc3cc(Cl)ccc3c2)C1=O [GTC000040A] | 8.3 nM
19 | C[C@@H](C(=O)N1CCOCC1)N1CC[C@H](N(Cc2ccoc2)S(=O)(=O)c2ccc3cc(Cl)ccc3c2)C1=O [GTC000014A] | 40 nM
20 | C[C@@H](C(=O)N1CCOCC1)N1CC[C@H](N(CC(N)=O)S(=O)(=O)c2cc3ccc(Cl)cc3s2)C1=O [GTC000026A] | 50 nM

Row | SMILES | IC50
21 | Cc1nc(CN([C@H]2CCN([C@@H](C)C(=O)N3CCOCC3)C2=O)S(=O)(=O)c2ccc3cc(Cl)ccc3c2)cs1 [GTC000024A] | 17.5 nM
22 | CCC(=O)CN([C@H]1CCN([C@@H](C)C(=O)N2CCOCC2)C1=O)S(=O)(=O)c1cc2cc(Cl)ccc2s1 [GTC000027A] | 278 nM
23 | C[C@@H](C(=O)N1CCOCC1)N1CC[C@H](N(CCN2CCCC2)S(=O)(=O)c2ccc3cc(Cl)ccc3c2)C1=O [GTC000043A] | 12 nM
24 | C[C@@H](C(=O)N1CCOCC1)N1CC[C@H](N(Cc2cccnc2)S(=O)(=O)c2ccc3cc(Cl)ccc3c2)C1=O [GTC000015A] | 26.3 nM
25 | C[C@@H](C(=O)N1CCOCC1)N1CC[C@H](N(Cc2ccccn2)S(=O)(=O)c2ccc3cc(Cl)ccc3c2)C1=O [GTC000028A] | 8 nM and 12 nM
26 | C[C@@H](C(=O)N1CCOCC1)N1CC[C@H](N(c2ccccc2)S(=O)(=O)c2ccc3cc(Cl)ccc3c2)C1=O [GTC000033A] | 266 nM
27 | CCOC(=O)CN([C@H]1CCN([C@@H](C)C(=O)N2CCOCC2)C1=O)S(=O)(=O)c1ccc2cc(Cl)ccc2c1 [GTC000018A] | 358 nM
28 | C[C@@H](C(=O)N1CCOCC1)N1CC[C@H](N(CC(=O)OC(C)(C)C)S(=O)(=O)c2ccc3cc(Cl)ccc3c2)C1=O [GTC000022A] | 6.5 nM
29 | C[C@@H](C(=O)N1CCOCC1)N1CC[C@H](N(Cc2ccco2)S(=O)(=O)c2ccc3cc(Cl)ccc3c2)C1=O [GTC000019A] | 68 nM
30 | C[C@@H](C(=O)N1CCOCC1)N1CC[C@H](N(CC#N)S(=O)(=O)/C=C/c2ccc(Cl)cc2)C1=O [GTC000011A] | 87.5 nM
31 | C[C@@H](C(=O)N1CCOCC1)N1CC[C@H](N(CC(N)=O)S(=O)(=O)c2ccc(-c3ccc(Cl)s3)s2)C1=O [GTC000032A] | 14 nM
32 | C[C@@H](C(=O)N1CCOCC1)N1CC[C@H](N(Cc2nccs2)S(=O)(=O)c2ccc3cc(Cl)ccc3c2)C1=O [GTC000020A] | 38 nM
33 | C[C@@H](C(=O)N1CCOCC1)N1CC[C@H](N(CC(=O)O)S(=O)(=O)/C=C/c2ccc(Cl)cc2)C1=O [GTC000017A] | 132 nM
34 | CCC(=O)CN([C@H]1CCN([C@@H](C)C(=O)N2CCOCC2)C1=O)S(=O)(=O)c1cc2ccc(Cl)cc2s1 [GTC000025A] | 27 nM
35 | C[C@@H](C(=O)N1CCOCC1)N1CC[C@H](N(CCN(C)C)S(=O)(=O)c2ccc3cc(Cl)ccc3c2)C1=O [GTC000042A] | 24 nM
36 | C[C@@H](C(=O)N1CCOCC1)N1CC[C@H](N(Cc2ccncc2)S(=O)(=O)c2ccc3cc(Cl)ccc3c2)C1=O [GTC000029A] | 11 nM
37 | COC(=O)CN([C@H]1CCN([C@@H](C)C(=O)N2CCOCC2)C1=O)S(=O)(=O)c1ccc(-c2ccc(Cl)s2)s1 [GTC000009A] | 15.5 nM
38 | CCC(=O)CN([C@H]1CCN([C@@H](C)C(=O)N2CCOCC2)C1=O)S(=O)(=O)c1ccc(-c2ccc(Cl)s2)s1 [GTC000010A] | 17 nM
39 | CCN([C@H]1CCN([C@@H](C)C(=O)N2CCOCC2)C1=O)S(=O)(=O)c1ccc2cc(Cl)ccc2c1 [GTC000023A] | 54 nM
